Results from US20260335397A1, “TREATMENT OF GEOGRAPHIC ATROPHY” (Apellis Pharmaceuticals, Inc., priority 2022, published 2026).

Key:
Type in all cases: in vivo, human
[1] = system: geographic atrophy (GA) secondary to age-related macular degeneration (AMD); test: Post-hoc analysis of BCVA and VFQ-25 by lesion distance from foveal center, OAKS and DERBY; details: lesions ≥250 μm from foveal center, 24 months
Protocol: This Example describes a post-hoc analysis of results from the OAKS and DERBY studies described in Example 1. Functional data by lesion distance from foveal center were assessed over 24 months.
In the patient subgroup having lesions ≥250 μm away from the foveal center, pegcetacoplan slowed vision loss and improved quality of life in patients. […] This subgroup included patients in the mITT sample with non-missing baseline measurements of RPE central 3 mm occupancy (C30) in regions 1-5 and lesion distance from fovea center. Mean changes were calculated among patients with BCVA measurements at each timepoint and thus samples varied across outcomes shown with no imputation for missing data. Adjusted differences from bootstrapped inverse probability weighted regressions controlling for baseline C30 in regions 1-5, study and fellow eye GA characteristics, study eye visual acuity, and patient characteristics.
This subgroup included patients in the mITT sample with non-missing baseline measurements of RPE central 3 mm occupancy (C3O) in regions 1-5 and lesion distance from fovea center. Mean changes were calculated among patients with BCVA measurements at each timepoint and thus samples varied across outcomes shown with no imputation for missing data. […]

[2] = system: geographic atrophy (GA) secondary to age-related macular degeneration (AMD); test: Post-hoc analysis of time to foveal light insensitivity, 4 central points of MAIA grid, OAKS study
Protocol: This Example describes a post-hoc analysis of results from the OAKS study described in Example 1 that was performed in order to assess the effect of pegcetacoplan monthly (PM) or every other month (PEOM) vs sham treatment in delaying occurrence of foveal insensitivity measured by the 4 most centrally located stimulus points of the MAcular Integrity Assessment (MAIA) grid. Absolute scotomatous points of −1 dB were considered present when a reaction was not evoked by the brightest possible light stimulus.
Light insensitivity was defined as absence of response to −1 dB at the stimulus point. For the time-to-event analysis, a foveal light insensitivity event was defined as the first light insensitivity (−1 dB) occurring at all 4 central stimuli. Events were measured at the exact date of a patient visit and depicted via Kaplan-Meier plots. A Cox proportional hazards model was applied factoring treatment, choroidal neovascularisation in the fellow eye, baseline GA lesion area, and baseline number of central 4 scotomatous points (categorical). Hazard ratios (HRs) of PM and PEOM were estimated.

[3] = system: geographic atrophy (GA) secondary to age-related macular degeneration (AMD); test: Post hoc microperimetry perilesional analysis, OAKS study; details: 24 months
Protocol: LS means estimated from MMRM analysis. […] Perilesional area defined as −250 μm inside baseline atrophy border to +250 μm outside atrophy border. dB=decibel; LS=least square; M=month; mITT=modified intent-to-treat; MMRM=mixed-effects model for repeated measures; PEOM=pegcetacoplan every other month; PM=pegcetacoplan monthly; SE=standard error.
A post hoc microperimetry perilesional analysis was performed on patients in the OAKS study to assess whether pegcetacoplan preservation of retinal tissue was reflected in preserved photoreceptor function in retina near GA lesion borders at baseline. Geographic atrophy lesion borders grow at approximately 100-150 microns per year. An assessment was performed of visual function of cells within 250 microns on either side of the lesion border, which are at the highest risk of permanently losing visual function as lesions expand. Reduction of retinal sensitivity as measured by microperimetry reflects loss of function.
Perilesional area (area within 250 microns of each side of GA lesion border) was created on fundus autofluorescence for each patient, and microperimetry endpoints were assessed within this region (68 spots on grid). In this analysis, approximately 21-22 points (out of 68 total—about one-third) qualified as “peri-lesional” using the 500 micron zone definition (250 inside and 250 outside of GA lesion border). A representative image is depicted as FIG. 5. […] Patients in both monthly (0.564 dB; p=0.0650) and every-other-month (EOM) (0.707 dB; p=0.0202) pegcetacoplan treatment groups lost less retinal sensitivity compared to the sham group over 24 months with increasing effects over time. Scotomatous points measure areas of the retina that have lost all light sensitivity and therefore are no longer functioning. Patients in both monthly (−0.680 points; p=0.1444) and EOM (−1.138 points; p=0.0140) pegcetacoplan treatment groups had fewer new scotomatous points compared to sham over 24 months with increasing effects over time.

In the case of “Poly(oxy-1,2-ethanediyl), α-hydro-ω-hydroxy-, 15,15′-diester with N-acetyl-L-isoleucyl-L-cysteinyl-L-valyl-1-methyl-L-tryptophyl-L-glutaminyl-L-α-aspartyl-L-tryptophylglycyl-L-alanyl-L-histidyl-L-arginyl-L-cysteinyl-L-threonyl-2-[2-(2-aminoethoxy)ethoxy]acetyl-N^6-carboxy-L-lysinamide cyclic (2->12)-(disulfide) [pegcetacoplan]”, the “quality of life assessed by VFQ-25, better relative to sham” value [1] is reported as “over 4 points”, the “BCVA change from baseline, relative to sham” value ([1]; monthly and every other month combined, baseline BCVA 73 (sham 75)) is reported as “less of a BCVA change from baseline at 24 months” and the “HR, occurrence of foveal light insensitivity vs sham” value ([2]; PEOM, 95% CI: 0.45, 0.92, p=0.0164) is reported as 0.64. The “Conversion of all 4 central points to scotoma in the study eye, patients” value ([2]; PEOM, n=152, 24 months) was 59 patients, the “Conversion of all 4 central points to scotoma in the study eye, percent of patients” value ([2]; PEOM, n=152, 24 months) was 38.8% and the “onset of foveal light insensitivity / loss of foveal light sensitivity” value ([2]; PM and PEOM, twenty-four-month data) was “Meaningful delays in loss of foveal light sensitivity”. The “HR, occurrence of foveal light insensitivity vs sham” value ([2]; PM, 95% CI: 0.46, 0.96, p=0.0282) was 0.66, the “Conversion of all 4 central points to scotoma in the study eye, patients” value ([2]; PM, n=155, 24 months) was 54 patients and the “Conversion of all 4 central points to scotoma in the study eye, percent of patients” value ([2]; PM, n=155, 24 months) was 34.8%. The “microperimetry measures, perilesional” value ([3]; all p-values nominal) was “positive trends in microperimetry measures”, the “new scotomatous points (perilesional) compared to sham” value ([3]; EOM, p=0.0140 (nominal)) was −1.138 points and the “less loss of retinal sensitivity (perilesional mean threshold sensitivity) compared to sham” value ([3]; every-other-month (EOM), p=0.0202 (nominal)) was 0.707 dB. For the same substance, the “less loss of retinal sensitivity (perilesional mean threshold sensitivity) compared to sham” value ([3]; monthly, p=0.0650 (nominal)) was 0.564 dB and the “new scotomatous points (perilesional) compared to sham” value ([3]; monthly, p=0.1444 (nominal)) was −0.680 points.
